Columns and labels:
Type in all cases: functional
Parameters in all cases: scale not given here
Schistosoma mansoni [1] = system: Schistosoma mansoni
Schistosoma mansoni [2] = system: Schistosoma mansoni; remark: listed apart in the source
Schistosoma mansoni [3] = system: Schistosoma mansoni; remark: listed apart in the source

SMILES | Toxicity (Schistosoma mansoni [1]) | Toxicity (Schistosoma mansoni [2]) | Toxicity (Schistosoma mansoni [3])
CN1C=C(c2ccc3ccccc3n2)C(c2c[nH]c3ccccc23)c2ccccc21 (stereo not given) | 0 | 0 | 0
COc1ccc(C2N(C)c3ccccc3N2C)cc1 | 0 | 0 | 0
Cl.Oc1ccccc1CNCC12CC3CC(CC(C3)C1)C2 | 0 | 0 | 0
CC(C)(C)c1ccc2c(c1)CN(Cc1ccc(Cl)cc1)CO2 | 0 | 0 | 0
O=C(NCc1ccco1)C1CCN(S(=O)(=O)c2ccc(Cl)cc2)CC1 | 0 | 0 | 0
CCCc1cc(O)c2c3c(c(=O)oc2c1)CN(C)CC3 | 0 | 0 | 0
COCCN(C(=O)Cc1cccs1)C(C(=O)NCc1ccc(OC)cc1)c1ccc(C(C)C)cc1 (stereo not given) | 0 | 0 | 0
CC(C)c1ccc(CNCC(O)c2ccccc2)cc1.Cl (stereo not given) | 0 | 0 | 0
CCN1CCN(c2cc(C)c3cc(NC(=O)c4ccc(OC)c(OC)c4)ccc3n2)CC1 | 1 | 0 | 0
COc1ccc2c(c1)C1(Nc3ccccc3-c3nc4ccccc4n31)C(=O)N2 (stereo not given) | 0 | 0 | 0
CCOc1ccccc1NC(=O)CN1CCN(C(=O)c2ccco2)CC1 | 0 | 0 | 0
Cc1ccc(N2C(=O)C3C(C2=O)C2(c4ccccc4)C(=O)C3(c3ccccc3)C(c3ccccc3)=C2c2ccccc2)cc1 (stereo not given) | 1 | 1 | 1
COc1ccc(C(=O)Nc2ccc(Cl)cc2C(=O)Nc2ccncc2)cc1 | 0 | 0 | 0
CCCc1c(CC)c(=N)c2ccccc2n1C | 1 | 0 | 0
CCOc1ccc(-c2nonc2NC(=O)c2cccc(C)c2)cc1OCC | 0 | 0 | 0
Cc1cc(C=C2SC(=Nc3ccccc3)N(C3CCCC3)C2=O)c(C)n1-c1ccc(Cl)cc1 | 0 | 0 | 0
c1ccc(/C2=N/c3ccccc3/N=C(/c3ccccc3)c3ccccc32)cc1 | 1 | 1 | 1
CN(C)c1ccc(-c2nc3cc(N)ccc3[nH]2)cc1 | 0 | 0 | 0
COc1ccc2c(=O)cc(C(Cl)(Cl)Cl)oc2c1 | 0 | 0 | 3
Cc1ccc(F)cc1NC(=O)c1cc(Cl)ccc1Nc1ccccc1 | 0 | 0 | 0
CCOc1ccc(C2N(C)c3ccccc3N2C)cc1 | 2 | 0 | 0
CC(=O)c1ccc(NC(=O)CSc2nc(-c3ccccc3Cl)ns2)cc1 | 0 | 0 | 0
CC(C)CNC(=O)c1c(N)n(CCc2ccccc2F)c2nc3ccccc3nc12 | 0 | 2 | 2
O=C(NCCCN1CCC(N2CCCCC2)CC1)C1=Cc2cc(Br)ccc2OC1 | 0 | 1 | 4

SMILES | Toxicity (Schistosoma mansoni [1]) | Toxicity (Schistosoma mansoni [2]) | Toxicity (Schistosoma mansoni [3])
CCCCCCc1cc(O)c2c3c(c(=O)oc2c1)CCC(C)C3 (stereo not given) | 0 | 2 | 0
CCCCCn1c(=N)n(CC(O)COc2cccc(C)c2)c2ccccc21.Cl (stereo not given) | 2 | 4 | 4
CN(C)c1ccc(N=Cc2ccc(N3CCOCC3)cc2)cc1 | 0 | 0 | 0
OCCNc1nc(Nc2ccc(Cl)c(Cl)c2)nc2ccccc12 | 2 | 0 | 4
CN(N=O)C1=C(NC2CCCCC2)C(=O)c2ccccc2C1=O | 0 | 0 | 0
Oc1ccc(C(=C(Cl)Cl)c2ccc(O)cc2)cc1 | 0 | 0 | 0
O=C(NC1CCN(Cc2ccccc2)CC1)c1cc2nc(-c3ccc(Cl)s3)cc(C(F)(F)F)n2n1 | 0 | 4 | 4
CCN(CC)CCNc1ncnc2c1[nH]c1ccc(Cl)cc12 | 0 | 0 | 0
CCc1ccc(Nc2cc(C)nc3nc(C)nn23)cc1 | 0 | 0 | 0
Cc1cc(NC(=O)c2cccc(C(F)(F)F)c2)n(-c2nc(-c3ccc4c(c3)OCO4)cs2)n1 | 0 | 0 | 3
CCCCCCc1cc2cc(-c3csc(C=Cc4ccccc4)n3)c(=O)oc2cc1O | 0 | 0 | 0
COc1ccc(CNC(=O)c2cc3c(=O)n4ccccc4nc3n(CCc3ccccc3)c2=N)cc1 | 1 | 4 | 4
COc1ccc2sc(N(Cc3cccnc3)C(=O)c3ccc(C#N)cc3)nc2c1 | 0 | 0 | 0
CCOC(=O)c1c(C)n(-c2ccc(Cl)cc2)c2ccc(OC(=O)C=Cc3ccccc3)cc12 | 0 | 0 | 0
CC(C)CCNCC(O)Cn1c2ccccc2c2ccccc21.Cl (stereo not given) | 2 | 4 | 4
O=C(NC1CCCC1)c1ccc(N2CCC(NCc3cccc(C(F)(F)F)c3)CC2)cc1 | 0 | 0 | 1
COc1ccc2nc(C)cc(Nc3ccccc3O)c2c1 | 0 | 0 | 0
COc1ccc(C(C)=O)cc1N1C(=O)C2C(C1=O)C1(c3ccccc3)C(=O)C2(c2ccccc2)C(c2ccc(C)cc2)=C1c1ccc(C)cc1 (stereo not given) | 0 | 0 | 0
CCN1CCN(Cc2ccc(NC(=O)c3cc4ccc5cccnc5c4[nH]3)cc2)CC1 | 0 | 1 | 0
CCOC(=O)c1cn(CC)c2cc(N3CCCCC3)c(F)cc2c1=O | 0 | 0 | 0
COc1cccc(C2(C)Nc3ccccc3-c3nc4ccccc4n32)c1 (stereo not given) | 0 | 0 | 0
Cc1cc(Nc2cccc(F)c2)nc(NCc2ccccc2)n1 | 2 | 0 | 0
O=C(CCc1ccco1)NC1CCN(CC2(c3ccc(Cl)cc3)CCC2)CC1 | 0 | 0 | 0
CCCc1c(C)nc2ccc(Br)cc2c1O | 0 | 0 | 0

SMILES | Toxicity (Schistosoma mansoni [1]) | Toxicity (Schistosoma mansoni [2]) | Toxicity (Schistosoma mansoni [3])
Cc1ccc(NC(=O)Nc2cccc(Cl)c2)cc1F | 1 | 0 | 0
CCC(=O)Nc1nnc(Cc2ccc(OC)c(OC)c2)s1 | 0 | 0 | 0
CCN(CC)CCNc1ccnc2cc3ccccc3cc12.O=P(O)(O)O | 2 | 3 | 3
FC(F)(F)c1cccc(CNC2CCN(CCc3ccccc3)CC2)c1 | 0 | 0 | 0
CCOC(=O)c1cnc2ccc(OC)cc2c1Nc1ccc(N2CCN(C)CC2)cc1 | 0 | 4 | 4
Cc1cc(C)cc(Nc2cc(C)nc3nc(C(F)(F)F)nn23)c1 | 0 | 0 | 0
O=[N+]([O-])c1ccc(C=NNc2nc3ccccc3[nH]2)cc1 | 0 | 1 | 0
CCCCOc1ccc(C(=O)Nc2cc(C)on2)cc1 | 0 | 0 | 0
COc1ccc2nc(N)nc(C)c2c1 | 0 | 0 | 4
CC(C)(C)C(=O)Nc1ccc(C(=O)Nc2cccc(-c3nc4ccccc4[nH]3)c2)cc1 | 0 | 0 | 2
COc1cccc(C(=O)Nc2ccc(-c3nc4ccccc4[nH]3)cc2)c1 | 0 | 0 | 0
CCCC(c1nnnn1C1CCCCC1)N1CCN(C(=O)c2ccco2)CC1.Cl (stereo not given) | 0 | 0 | 0
OC(CNC1CCCCC1)Cn1c2ccc(I)cc2c2cc(I)ccc21 (stereo not given) | 4 | 4 | 4
COc1ccc(C(=O)C2CC2c2ccc(Cl)cc2)cc1 (stereo not given) | 0 | 0 | 0
CC(NCc1ccccc1)c1cc(Cl)ccc1O (stereo not given) | 2 | 0 | 0
COc1ccc(C=C2SC(=N)N(c3ccccc3OC)C2=O)cc1 | 0 | 0 | 0
N=c1n(CCN2CCCCC2)c2ccccc2n1CC(=O)c1ccc(Cl)c(Cl)c1 | 3 | 4 | 4
COc1ccc(-c2nc(N3CCN(C(=O)C4CCCCC4)CC3)c3c4c(sc3n2)CCCC4)cc1 | 0 | 0 | 0
Clc1ccc2[nH]c3c(NCCCN4CCOCC4)ncnc3c2c1 | 0 | 0 | 0
CCn1c(SCC(=O)Nc2cc(C(F)(F)F)ccc2Cl)nc2ccccc2c1=O | 0 | 0 | 0
CCOc1c(Br)cc(C2C(C(=O)OC)=CN(C)C=C2C(=O)OC)cc1OC | 0 | 0 | 0
COc1cc(C(=O)ON=C(N)Cc2cccc3ccccc23)cc(OC)c1OC | 0 | 3 | 4

From ChEMBL document CHEMBL2363022, “Malaria Box Schistosomiasis Screening Data” (2013)
